These results are taken from US20240309005A1 (priority 2021, published 2024).

The nature of the data set: physchem. The note with it: 25 °C, kinetic from dmso stock.

Molecules are shown by their SMILES. ≈ marks a conversion by molar mass, not a printed value.

Turning to `CCN1C[C@H](F)[C@H](Oc2nc(-c3ccc(NS(=O)(=O)c4cc(Cl)ccc4F)cc3)nc3[nH]nc(C)c23)C1` [Compound 56, 5-chloro-N-[4-(4-{[(3R,4S)-1-ethyl-4-fluoropyrrolidin-3-yl]oxy}-3-methyl-1H-pyrazolo[3,4-d]pyrimidin-6-yl)phenyl]-2-fluorobenzenesulfonamide], the solubility at 2 h runs as follows: (pH 5, fessif) 73.7 µM (≈ 40.5 µg/mL); (pH 7.4, aqueous buffer) 0.48 µM (≈ 0.264 µg/mL).

For `Cc1n[nH]c2nc(-c3ccc(NS(=O)(=O)c4cc(Cl)ccc4F)cc3)nc(OCCN(C)C)c12` [Compound 8, 5-chloro-N-(4-(4-(2-(dimethylamino)ethoxy)-3-methyl-1H-pyrazolo[3,4-d]pyrimidin-6-yl)phenyl)-2-fluorobenzenesulfonamide], the solubility at 2 h was determined as 91 µM (≈ 46 µg/mL) (pH 5, fessif) and 0.23 µM (≈ 0.116 µg/mL) (pH 7.4, aqueous buffer).

For `Cc1n[nH]c2nc(-c3ccc(NS(=O)(=O)c4cc(Cl)ccc4F)cc3)nc(O[C@H]3CCNC[C@H]3F)c12` [Compound 46, 5-chloro-2-fluoro-N-(4-(4-(((3R,4S)-3-fluoropiperidin-4-yl)oxy)-3-methyl-1H-pyrazolo[3,4-d]pyrimidin-6-yl)phenyl)benzenesulfonamide], the solubility at 2 h turned out to be 174 µM (≈ 93.1 µg/mL) (pH 5, fessif) and 0.7 µM (≈ 0.374 µg/mL) (pH 7.4, aqueous buffer).

With `Cc1n[nH]c2nc(-c3ccc(NS(=O)(=O)c4cc(Cl)ccc4F)cc3)nc(O[C@@H]3CN(C)C[C@@H]3F)c12` [Compound 58, 5-chloro-2-fluoro-N-[4-(4-{[(3R,4S)-4-fluoro-1-methylpyrrolidin-3-yl]oxy}-3-methyl-1H-pyrazolo[3,4-d]pyrimidin-6-yl)phenyl]benzenesulfonamide], the solubility at 2 h came to 262 µM (≈ 140 µg/mL) (pH 5, fessif) and 0.92 µM (≈ 0.492 µg/mL) (pH 7.4, aqueous buffer).

In the case of `Cc1n[nH]c2nc(-c3ccc(NS(=O)(=O)c4cc(Cl)ccc4F)cc3)nc(NCc3ccncc3)c12` [Compound 13, 5-chloro-2-fluoro-N-(4-(3-methyl-4-((pyridin-4-ylmethyl)amino)-1H-pyrazolo[3,4-d]pyrimidin-6-yl)phenyl)benzenesulfonamide], the solubility at 2 h by setting is: (pH 5, fessif) 5.81 µM (≈ 3.04 µg/mL); (pH 7.4, aqueous buffer) under 0.12 µM.

Take `Cc1n[nH]c2nc(-c3ccc(NS(=O)(=O)c4cc(Cl)ccc4F)cc3)nc(N(C)CCN(C)C)c12` [Compound 154, 5-chloro-N-(4-(4-((2-(dimethylamino)ethyl)(methyl)amino)-3-methyl-1H-pyrazolo[3,4-d]pyrimidin-6-yl)phenyl)-2-fluorobenzenesulfonamide]: the solubility at 2 h by setting is: (pH 5, fessif) 136 µM (≈ 70.5 µg/mL); (pH 7.4, aqueous buffer) 1.61 µM (≈ 0.834 µg/mL).

As for `Cc1n[nH]c2nc(-c3ccc(NS(=O)(=O)c4cc(Cl)ccc4F)cc3)nc(O[C@@H]3CCN(CC(F)F)C[C@@H]3F)c12` [Compound 64, 5-chloro-N-[4-(4-{[(3S,4R)-1-(2,2-difluoroethyl)-3-fluoropiperidin-4-yl]oxy}-3-methyl-1H-pyrazolo[3,4-d]pyrimidin-6-yl)phenyl]-2-fluorobenzenesulfonamide], the solubility at 2 h reads like this: (pH 5, fessif) 6.43 µM (≈ 3.85 µg/mL); (pH 7.4, aqueous buffer) under 0.24 µM.

Turning to `Cc1n[nH]c2nc(-c3ccc(NS(=O)(=O)N4CCCCC4)cc3)nc(OC3CCN(C(C)C)CC3)c12` [Compound 6, N-(4-(4-((1-isopropylpiperidin-4-yl)oxy)-3-methyl-1H-pyrazolo[3,4-d]pyrimidin-6-yl)phenyl)piperidine-1-sulfonamide], the solubility at 2 h is 258 µM (≈ 133 µg/mL) (pH 5, fessif) and 299 µM (≈ 154 µg/mL) (pH 7.4, aqueous buffer).

In the case of `C=CS(=O)(=O)Nc1ccc(-c2nc(OC3CCN(C(C)C)CC3)c3c(C)n[nH]c3n2)cc1` [Compound 1, N-(4-(4-((1-isopropylpiperidin-4-yl)oxy)-3-methyl-1H-pyrazolo[3,4-d]pyrimidin-6-yl)phenyl)ethenesulfonamide], the solubility at 2 h is, setting by setting: (pH 5, fessif) 279 µM (≈ 127 µg/mL); (pH 7.4, aqueous buffer) 290 µM (≈ 132 µg/mL).

For the compound `Cc1n[nH]c2nc(-c3ccc(NS(=O)(=O)c4cc(Cl)ccc4F)cc3)nc(NC3CN(C(C)C)C3)c12` [Compound 25, 5-chloro-2-fluoro-N-(4-(4-((1-isopropylazetidin-3-yl)amino)-3-methyl-1H-pyrazolo[3,4-d]pyrimidin-6-yl)phenyl)benzenesulfonamide], the concentration in solution (pH 5, fessif) (solubility at 2 h) was 301 µM (≈ 160 µg/mL) and the solubility at 2 h (pH 7.4, aqueous buffer) was 15.6 µM (≈ 8.27 µg/mL).

Regarding `[2H]C([2H])([2H])N1CC[C@@H](Oc2nc(-c3ccc(NS(=O)(=O)c4cc(Cl)ccc4F)cc3)nc3[nH]nc(C)c23)[C@@H](F)C1` [Compound 65, 5-chloro-2-fluoro-N-(4-(4-(((3S,4R)-3-fluoro-1-(methyl-d3)piperidin-4-yl)oxy)-3-methyl-1H-pyrazolo[3,4-d]pyrimidin-6-yl)phenyl)benzenesulfonamide], the solubility at 2 h (pH 5, fessif) came to 210 µM (≈ 116 µg/mL) and the solubility at 2 h (pH 7.4, aqueous buffer) was 0.73 µM (≈ 0.403 µg/mL).

`Cc1n[nH]c2nc(-c3ccc(NS(=O)(=O)c4ccccn4)cc3)nc(O[C@@H]3CCN(C)C[C@@H]3F)c12` [Compound 66, N-[4-(4-{[(3S,4R)-3-fluoro-1-methylpiperidin-4-yl]oxy}-3-methyl-1H-pyrazolo[3,4-d]pyrimidin-6-yl)phenyl]pyridine-2-sulfonamide] yielded a solubility at 2 h (pH 5, fessif) of 32.9 µM (≈ 16.4 µg/mL) and a solubility at 2 h (pH 7.4, aqueous buffer) of 1.51 µM (≈ 0.751 µg/mL).

In the case of `Cc1n[nH]c2nc(-c3ccc(NS(=O)(=O)c4cc(Cl)ccc4F)cc3)nc(OC3CN(C(C)C)C3)c12` [Compound 17, 5-chloro-2-fluoro-N-(4-[4-[(1-isopropylazetidin-3-yl)oxy]-3-methyl-1H-pyrazolo[3,4-d]pyrimidin-6-yl]phenyl)benzenesulfonamide], the solubility at 2 h by setting is: (pH 5, fessif) 202 µM (≈ 107 µg/mL); (pH 7.4, aqueous buffer) 1.12 µM (≈ 0.595 µg/mL).

For the compound `Cc1n[nH]c2nc(-c3ccc(NS(=O)(=O)c4cc(Cl)ccc4F)cc3)nc(NCCN(C)C)c12` [Compound 9, 5-chloro-N-(4-(4-((2-(dimethylamino)ethyl)amino)-3-methyl-1H-pyrazolo[3,4-d]pyrimidin-6-yl)phenyl)-2-fluorobenzenesulfonamide], the solubility at 2 h by setting is: (pH 5, fessif) 289 µM (≈ 146 µg/mL); (pH 7.4, aqueous buffer) 8.5 µM (≈ 4.28 µg/mL).

In the case of `Cc1n[nH]c2nc(-c3ccc(NS(=O)(=O)c4cc(Cl)ccc4F)cc3)nc(O[C@H]3CCNC3)c12` [Compound 48, 5-chloro-2-fluoro-N-(4-{3-methyl-4-[(3S)-pyrrolidin-3-yloxy]-1H-pyrazolo[3,4-d]pyrimidin-6-yl}phenyl)benzenesulfonamide], the solubility at 2 h reads like this: (pH 5, fessif) 178 µM (≈ 89.5 µg/mL); (pH 7.4, aqueous buffer) 63.6 µM (≈ 32 µg/mL).

Regarding `Cc1n[nH]c2nc(-c3ccc(NS(=O)(=O)C(C)C)cc3)nc(OC3CCN(C(C)C)CC3)c12` [Compound 5, N-(4-(4-((1-isopropylpiperidin-4-yl)oxy)-3-methyl-1H-pyrazolo[3,4-d]pyrimidin-6-yl)phenyl)propane-2-sulfonamide], the solubility at 2 h is, setting by setting: (pH 5, fessif) 315 µM (≈ 149 µg/mL); (pH 7.4, aqueous buffer) 40 µM (≈ 18.9 µg/mL).

For `Cc1n[nH]c2nc(-c3ccc(NS(=O)(=O)c4cc(Cl)ccc4F)cc3)nc(OC3CCNCC3)c12` [Compound 55, 5-chloro-2-fluoro-N-{4-[3-methyl-4-(piperidin-4-yloxy)-1H-pyrazolo[3,4-d]pyrimidin-6-yl]phenyl}benzenesulfonamide], the solubility at 2 h amounted to 244 µM (≈ 126 µg/mL) (pH 5, fessif) and 1.37 µM (≈ 0.708 µg/mL) (pH 7.4, aqueous buffer).

Turning to `Cc1n[nH]c2nc(-c3ccc(NS(=O)(=O)c4cc(Cl)ccc4F)cc3)nc(O[C@H]3CCNC[C@@H]3F)c12` [Compound 47, 5-chloro-2-fluoro-N-(4-(4-(((3S,4S)-3-fluoropiperidin-4-yl)oxy)-3-methyl-1H-pyrazolo[3,4-d]pyrimidin-6-yl)phenyl)benzenesulfonamide], the solubility at 2 h by setting is: (pH 5, fessif) 211 µM (≈ 113 µg/mL); (pH 7.4, aqueous buffer) 16.8 µM (≈ 8.99 µg/mL).

For the compound `Cc1n[nH]c2nc(-c3ccc(NS(=O)(=O)c4ccc(CN)cc4)cc3)nc(OC3CCN(C(C)C)CC3)c12` [Compound 4, 4-(aminomethyl)-N-(4-(4-((1-isopropylpiperidin-4-yl)oxy)-3-methyl-1H-pyrazolo[3,4-d]pyrimidin-6-yl)phenyl)benzenesulfonamide], the solubility at 2 h reads like this: (pH 5, fessif) 17.6 µM (≈ 9.43 µg/mL); (pH 7.4, aqueous buffer) 293 µM (≈ 157 µg/mL).

With `Cc1n[nH]c2nc(-c3cnc(NS(=O)(=O)c4cc(Cl)ccc4F)nc3)nc(OC3CCN(C(C)C)CC3)c12` [Compound 12, 5-chloro-2-fluoro-N-(5-(4-((1-isopropylpiperidin-4-yl)oxy)-3-methyl-1H-pyrazolo[3,4-d]pyrimidin-6-yl)pyrimidin-2-yl) benzenesulfonamide], the solubility at 2 h by setting is: (pH 5, fessif) 33 µM (≈ 18.5 µg/mL); (pH 7.4, aqueous buffer) 2.5 µM (≈ 1.4 µg/mL).

`Cc1n[nH]c2nc(-c3ccc(NS(=O)(=O)c4cc(F)ccc4F)cc3)nc(NCCN3CCCC3)c12` [Compound 33, 2,5-difluoro-N-(4-(3-methyl-4-((2-(pyrrolidin-1-yl)ethyl)amino)-1H-pyrazolo[3,4-d]pyrimidin-6-yl)phenyl)benzenesulfonamide]: the solubility at 2 h came out at 298 µM (≈ 153 µg/mL) (pH 5, fessif) and 3.8 µM (≈ 1.95 µg/mL) (pH 7.4, aqueous buffer).

As to `Cc1n[nH]c2nc(-c3ccc(NS(=O)(=O)c4ccccn4)cc3)nc(NCCN(C)CCO)c12` [Compound 20], the solubility at 2 h is 277 µM (≈ 134 µg/mL) (pH 5, fessif) and 82 µM (≈ 39.6 µg/mL) (pH 7.4, aqueous buffer).

As to `Cc1n[nH]c2nc(-c3ccc(NS(=O)(=O)c4cc(Cl)ccc4F)cc3)nc(O[C@@H]3CCNC[C@H]3F)c12` [Compound 53, 5-chloro-2-fluoro-N-[4-(4-{[(3R,4R)-3-fluoropiperidin-4-yl]oxy}-3-methyl-1H-pyrazolo[3,4-d]pyrimidin-6-yl)phenyl]benzenesulfonamide], the solubility at 2 h reads like this: (pH 5, fessif) 283 µM (≈ 151 µg/mL); (pH 7.4, aqueous buffer) 11.3 µM (≈ 6.05 µg/mL).

On to `Cc1n[nH]c2nc(-c3ccc(NS(=O)(=O)c4cccnc4)cc3)nc(NCCN(C)CCO)c12` [Compound 21, N-[4-[4-([2-[(2-hydroxyethyl)(methyl)amino]ethyl]amino)-3-methyl-1H-pyrazolo[3,4-d]pyrimidin-6-yl]phenyl]pyridine-3-sulfonamide], for which the solubility at 2 h runs as follows: (pH 5, fessif) 302 µM (≈ 146 µg/mL); (pH 7.4, aqueous buffer) 2.26 µM (≈ 1.09 µg/mL).

For the compound `COc1ccnc(S(=O)(=O)Nc2ccc(-c3nc(O[C@@H]4CCN(C)C[C@@H]4F)c4c(C)n[nH]c4n3)cc2)c1` [Compound 62, N-[4-(4-{[(3S,4R)-3-fluoro-1-methylpiperidin-4-yl]oxy}-3-methyl-1H-pyrazolo[3,4-d]pyrimidin-6-yl)phenyl]-4-methoxypyridine-2-sulfonamide], the solubility at 2 h by setting is: (pH 5, fessif) 16.2 µM (≈ 8.55 µg/mL); (pH 7.4, aqueous buffer) 0.36 µM (≈ 0.19 µg/mL).

The solubility is how much of the substance goes into solution per volume.
